# Laboratory results as given in US20150342937A1, “BOWEL CLEANSING COMPOSITION” (priority 2013, published 2015).
# Assays:
# intestinal bacteria [1] = assay: Bacterial culture test of mixed stool/test solutions after gas measurement; type: cell-based; conditions: average; mixed solutions cultured for 48 hours at SCL
# Procedure: Following the measurement of gas concentration as described above, the mixed solutions in the containers were submitted to a laboratory at the Seoul Medical Science Institute (SCL), a CAP accredited and Korean Society for Laboratory Medicine (KSLM)/Laboratory Medicine Foundation accredited institution, where they were cultured for 48 hours and measured for the resulting colony counts.
# [2] = scale proposed by Nunes et al. 2008; cited from earlier work
# [3] = 15 g intravenously over 30 minutes twice weekly for four weeks; phase I study 2013; cited from earlier work
# intestinal bacteria [4] = assay: Bacterial culture test, 5% diluted solution of stool from one subject; type: cell-based; conditions: 10 ml 5% stool suspension + 15 ml test solution
# Procedure: With respect to Example 2 in which xylitol was used as the first cleansing ingredient, in order to test the antibacterial effect of the solution against intestinal bacteria, a 5% diluted solution of stool was prepared from a stool sample obtained from one subject. […] Then, each of these mixed solutions was split in half and submitted to two different testing institutions, the Seoul Medical Science Institute (SCL), which is a CAP accredited and KSLM/Laboratory Medicine Foundation accredited institution, and the Green Cross Laboratories (GC Labs), which is a KSLM accredited institution, for bacterial culture tests.
compound,measurement,setting,value
"OC[C@@H](O)[C@@H](O)[C@H](O)[C@H](O)CO [compound 5, mannitol]",Colony count,intestinal bacteria [1],4.0 × 10^8 CFU/mL
OC[C@@H](O)[C@@H](O)[C@H](O)[C@H](O)CO [mannitol],rate of adequate bowel cleansing,[2],75%
O=C1O[C@H]([C@@H](O)CO)C(O)=C1O [ascorbic acid],blood ascorbic acid level,[3],at least 350 mg/dL
"OC[C@@H](O)[C@H](O)[C@@H](O)CO [Reference Example 6, xylitol]",Colony count (GC Labs),intestinal bacteria [4]; Green Cross Laboratories,10.2 × 10^6 CFU/mL
same,Colony count (SCL),intestinal bacteria [4]; Seoul Medical Science Institute,60 × 10^6 CFU/mL
"OC[C@@H](O)[C@@H](O)[C@H](O)[C@@H](O)CO [compound 4, sorbitol]",Colony count,intestinal bacteria [1],4.5 × 10^8 CFU/mL
